Assay results taken from PMC12281424, “A Rac-specific competitive inhibitor of guanine nucleotide binding reduces metastasis in triple-negative breast cancer” (Cell Reports Medicine, 2025).

Key:
[1] = system: MDA-MB-468 spheroids; experiment: 3D invasion assay; format: cell-based; conditions: 10^-5 M
Description: Figure 5 A41 decreases growth and invasiveness of TNBC cells in vitro (A) Representative images of RAC-GTP levels (red) in MDA-MB-468 Luc cells in the absence (CTL) and presence of EHT1864, NSC23766, or A41 (1 h at 10 μM) (left). Luciferase (Luc, green) was used to detect the cells. RAC-GTP mean fluorescence intensity was quantified inside the cell area (right) (n = 31–37 cells from 3 independent experiments; ∗p < 0.05, ∗∗∗p < 0.001) (scale bars: 10 μm). […] (C) Quantification of colony number of indicated cancer cell lines in the presence of A41 (10 μM) expressed as the percentage of control in the absence of A41. Results shown are representative of N > 3 independent experiments. (D) Immunoblot analysis and corresponding quantification of AKT and P44/42 expression and phosphorylation (pAKT, p44/42) in MDA-MB-468 Luc cells in the absence (−) and presence of NSC23766 or A41 (1 h at 10^−5 M). […] (E) 3D invasion assay of MDA-MB-468 Luc and cancer-associated fibroblasts (CAFs) and corresponding quantification (scale bars: 200 μm). […]
3D-spheroids were obtained, according the protocol previously described,[62] by re-suspending cells at a concentration of 1.25 × 10^4 cells/ml in 20% Methyl-cellulose/80% DMEM 10% FBS. […] Invasion was monitored by fully automated Dmi6000b Wide Field Fluorescence Microscope (Leica Microsystems, Wetzlar, Germany) during 48h.

[2] = system: CHO; experiment: Micronucleus assay (HCA); format: cell-based
From the text: Data S4. Micronucleus assay-A41.
Test Scored % Cytotox % Cytotox % Micronucleated t-Test Test
Concentr. Cells Index CBPI NumbersCell Cells p-value Result […]
Micronucleus (CHO - S9, HCA)

[3] = biological target: Adenosine A2A (Homo sapiens, UniProt P29274); experiment: Safety screen; format: binding
Description: (§1) The kinase profiler was performed by the company Eurofins (Discovery, Panlab and Cerep).

[4] = biological target: Bradykinin B2 (Homo sapiens, UniProt P30411); experiment: Safety screen; format: binding
Description: (§2) Blood cell counts, kinase profiler, safety screen, bacterial cytotoxicity, Ames, micronucleus assays were performed by the company Eurofins (France). The kinase profiler was performed by the company Eurofins (Discovery, Panlab and Cerep).

[5] = biological target: CK1γ2(h) (Homo sapiens, UniProt P78368); experiment: Kinase Profiler; format: biochemical
Description: as §2

[6] = biological target: CK1γ3(h) (Homo sapiens, UniProt Q9Y6M4); experiment: Kinase Profiler; format: biochemical
Description: as §2

[7] = biological target: LKB1(h) (Homo sapiens, UniProt Q15831); experiment: Kinase Profiler; format: biochemical
Description: as §1

[8] = biological target: Lyn(h) (Homo sapiens, UniProt P07948); experiment: Kinase Profiler; format: biochemical
Description: as §1

[9] = biological target: MARK3(h) (Homo sapiens, UniProt P27448); experiment: Kinase Profiler; format: biochemical
Description: as §1

[10] = biological target: Met(M1268T)(h) (Homo sapiens, UniProt P08581, M1250T); experiment: Kinase Profiler; format: biochemical
Description: as §1

[11] = biological target: Met(Y1248H)(h) (Homo sapiens, UniProt P08581, Y1230H); experiment: Kinase Profiler; format: biochemical
Description: as §1

[12] = biological target: MSK1(h) (Homo sapiens, UniProt O75582); experiment: Kinase Profiler; format: biochemical
Description: as §2

[13] = biological target: NEK4(h) (Homo sapiens, UniProt P51957); experiment: Kinase Profiler; format: biochemical
Description: as §1

[14] = biological target: NEK6(h) (Homo sapiens, UniProt Q9HC98); experiment: Kinase Profiler; format: biochemical
Description: as §1

[15] = biological target: RIPK1(h) (Homo sapiens, UniProt Q13546); experiment: Kinase Profiler; format: biochemical
Description: as §1

[16] = biological target: SRPK1(h) (Homo sapiens, UniProt Q96SB4); experiment: Kinase Profiler; format: biochemical
Description: as §1

[17] = biological target: ULK2(h) (Homo sapiens, UniProt Q8IYT8); experiment: Kinase Profiler; format: biochemical
Description: as §2

[18] = biological target: VRK1(h) (Homo sapiens, UniProt Q99986); experiment: Kinase Profiler; format: biochemical
Description: as §1

[19] = biological target: Yes(h) (Homo sapiens, UniProt P07947); experiment: Kinase Profiler; format: biochemical
Description: as §1

Sequence of ULK2(h) (Q8IYT8 whole entry): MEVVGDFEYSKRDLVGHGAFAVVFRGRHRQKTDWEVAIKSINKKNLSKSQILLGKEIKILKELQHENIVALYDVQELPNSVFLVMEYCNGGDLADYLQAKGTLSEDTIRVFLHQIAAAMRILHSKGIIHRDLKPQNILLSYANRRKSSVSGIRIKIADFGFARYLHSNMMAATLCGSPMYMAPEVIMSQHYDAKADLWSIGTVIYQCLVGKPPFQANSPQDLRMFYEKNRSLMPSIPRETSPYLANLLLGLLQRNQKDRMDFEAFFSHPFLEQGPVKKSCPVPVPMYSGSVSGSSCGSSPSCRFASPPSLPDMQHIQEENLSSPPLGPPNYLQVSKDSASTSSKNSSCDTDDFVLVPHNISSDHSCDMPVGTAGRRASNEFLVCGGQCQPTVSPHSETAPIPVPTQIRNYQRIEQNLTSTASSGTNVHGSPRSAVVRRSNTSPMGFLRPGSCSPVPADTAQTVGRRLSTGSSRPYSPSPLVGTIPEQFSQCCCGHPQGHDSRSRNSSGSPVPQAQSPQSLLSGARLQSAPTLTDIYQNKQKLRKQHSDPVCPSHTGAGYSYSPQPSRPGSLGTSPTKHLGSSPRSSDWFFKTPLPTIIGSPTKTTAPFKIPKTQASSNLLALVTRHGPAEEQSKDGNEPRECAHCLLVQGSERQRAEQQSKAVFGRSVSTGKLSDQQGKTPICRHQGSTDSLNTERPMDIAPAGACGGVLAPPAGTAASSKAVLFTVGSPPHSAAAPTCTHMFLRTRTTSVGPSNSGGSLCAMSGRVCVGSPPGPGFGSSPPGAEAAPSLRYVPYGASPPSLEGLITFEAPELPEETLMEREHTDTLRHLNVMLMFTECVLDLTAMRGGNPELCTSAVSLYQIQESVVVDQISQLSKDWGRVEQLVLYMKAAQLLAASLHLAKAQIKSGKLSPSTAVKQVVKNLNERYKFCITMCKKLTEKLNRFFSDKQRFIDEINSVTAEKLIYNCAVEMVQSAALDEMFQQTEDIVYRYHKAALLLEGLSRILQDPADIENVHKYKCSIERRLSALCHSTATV
Sequence of NEK4(h) (P51957 whole entry): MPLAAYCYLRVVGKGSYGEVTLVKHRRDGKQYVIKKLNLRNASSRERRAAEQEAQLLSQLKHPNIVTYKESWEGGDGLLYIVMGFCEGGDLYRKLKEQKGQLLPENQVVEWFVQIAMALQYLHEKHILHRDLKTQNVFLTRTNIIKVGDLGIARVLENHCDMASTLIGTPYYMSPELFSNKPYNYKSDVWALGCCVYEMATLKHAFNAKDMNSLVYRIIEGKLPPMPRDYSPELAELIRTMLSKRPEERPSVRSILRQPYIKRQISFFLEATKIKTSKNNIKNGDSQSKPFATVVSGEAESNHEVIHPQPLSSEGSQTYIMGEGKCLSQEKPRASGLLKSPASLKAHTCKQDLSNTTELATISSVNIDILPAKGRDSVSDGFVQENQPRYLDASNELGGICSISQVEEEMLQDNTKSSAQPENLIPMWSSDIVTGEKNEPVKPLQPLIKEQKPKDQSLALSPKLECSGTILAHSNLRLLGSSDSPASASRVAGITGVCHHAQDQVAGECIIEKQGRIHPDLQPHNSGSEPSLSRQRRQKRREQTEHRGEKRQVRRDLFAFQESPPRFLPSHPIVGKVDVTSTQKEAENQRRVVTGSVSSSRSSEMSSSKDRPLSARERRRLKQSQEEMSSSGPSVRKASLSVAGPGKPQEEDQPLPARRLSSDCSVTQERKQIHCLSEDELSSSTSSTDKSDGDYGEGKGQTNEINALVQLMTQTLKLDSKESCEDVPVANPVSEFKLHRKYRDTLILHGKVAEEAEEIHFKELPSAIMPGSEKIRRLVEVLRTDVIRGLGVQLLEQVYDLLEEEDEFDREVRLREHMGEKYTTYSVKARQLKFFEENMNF
Sequence of LKB1(h) (Q15831 whole entry): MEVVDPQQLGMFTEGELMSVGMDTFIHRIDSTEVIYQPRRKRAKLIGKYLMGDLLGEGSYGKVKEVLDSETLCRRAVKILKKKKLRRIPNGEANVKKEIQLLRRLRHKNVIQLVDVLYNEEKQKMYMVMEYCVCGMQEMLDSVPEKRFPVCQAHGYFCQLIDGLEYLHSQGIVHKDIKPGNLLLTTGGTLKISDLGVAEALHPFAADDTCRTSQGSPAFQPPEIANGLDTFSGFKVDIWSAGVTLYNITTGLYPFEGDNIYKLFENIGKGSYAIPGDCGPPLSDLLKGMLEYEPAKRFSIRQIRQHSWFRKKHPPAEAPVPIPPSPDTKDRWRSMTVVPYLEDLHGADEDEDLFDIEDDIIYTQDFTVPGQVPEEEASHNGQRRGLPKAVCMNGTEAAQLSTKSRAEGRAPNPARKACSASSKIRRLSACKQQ
Sequence of LKB1(h) (Q7RTN6 whole entry partner): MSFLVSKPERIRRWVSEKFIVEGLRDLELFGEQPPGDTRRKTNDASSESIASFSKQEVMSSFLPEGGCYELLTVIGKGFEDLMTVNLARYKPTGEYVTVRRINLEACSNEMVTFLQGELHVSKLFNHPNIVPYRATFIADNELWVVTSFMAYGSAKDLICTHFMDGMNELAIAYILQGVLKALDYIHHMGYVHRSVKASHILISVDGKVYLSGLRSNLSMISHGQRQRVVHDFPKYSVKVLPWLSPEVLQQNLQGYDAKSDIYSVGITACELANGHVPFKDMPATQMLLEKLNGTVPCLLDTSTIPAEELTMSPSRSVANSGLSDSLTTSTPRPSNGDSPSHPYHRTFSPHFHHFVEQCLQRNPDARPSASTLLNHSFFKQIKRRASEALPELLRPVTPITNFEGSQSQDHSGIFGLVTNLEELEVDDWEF
Sequence of LKB1(h) (Q9Y376 whole entry partner): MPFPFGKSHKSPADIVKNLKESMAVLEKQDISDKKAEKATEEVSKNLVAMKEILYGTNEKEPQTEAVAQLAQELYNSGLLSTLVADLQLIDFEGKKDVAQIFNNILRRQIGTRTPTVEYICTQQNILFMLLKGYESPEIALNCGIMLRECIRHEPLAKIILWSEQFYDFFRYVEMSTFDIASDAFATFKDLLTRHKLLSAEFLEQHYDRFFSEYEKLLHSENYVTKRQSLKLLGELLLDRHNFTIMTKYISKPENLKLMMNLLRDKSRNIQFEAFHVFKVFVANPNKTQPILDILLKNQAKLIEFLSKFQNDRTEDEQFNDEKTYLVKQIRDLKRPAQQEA
Sequence of RIPK1(h) (Q13546 whole entry): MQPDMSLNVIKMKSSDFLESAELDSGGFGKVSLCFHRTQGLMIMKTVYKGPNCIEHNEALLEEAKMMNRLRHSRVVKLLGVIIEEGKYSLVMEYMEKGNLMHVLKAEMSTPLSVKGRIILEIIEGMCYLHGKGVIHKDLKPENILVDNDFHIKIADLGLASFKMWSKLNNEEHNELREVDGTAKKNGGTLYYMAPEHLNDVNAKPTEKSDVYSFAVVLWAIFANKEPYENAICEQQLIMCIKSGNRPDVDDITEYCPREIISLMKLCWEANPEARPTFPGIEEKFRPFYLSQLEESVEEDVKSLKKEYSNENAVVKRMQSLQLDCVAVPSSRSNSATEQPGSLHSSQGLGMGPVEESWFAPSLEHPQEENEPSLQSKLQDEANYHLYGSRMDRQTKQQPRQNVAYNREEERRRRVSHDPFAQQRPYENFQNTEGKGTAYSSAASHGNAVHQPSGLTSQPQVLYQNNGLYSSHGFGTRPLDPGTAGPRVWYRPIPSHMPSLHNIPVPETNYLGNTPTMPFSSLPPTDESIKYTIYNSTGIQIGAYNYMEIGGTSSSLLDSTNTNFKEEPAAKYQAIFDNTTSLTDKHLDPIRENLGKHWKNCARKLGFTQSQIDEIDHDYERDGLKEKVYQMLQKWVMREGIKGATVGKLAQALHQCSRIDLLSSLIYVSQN
Sequence of CK1γ3(h) (Q9Y6M4 whole entry): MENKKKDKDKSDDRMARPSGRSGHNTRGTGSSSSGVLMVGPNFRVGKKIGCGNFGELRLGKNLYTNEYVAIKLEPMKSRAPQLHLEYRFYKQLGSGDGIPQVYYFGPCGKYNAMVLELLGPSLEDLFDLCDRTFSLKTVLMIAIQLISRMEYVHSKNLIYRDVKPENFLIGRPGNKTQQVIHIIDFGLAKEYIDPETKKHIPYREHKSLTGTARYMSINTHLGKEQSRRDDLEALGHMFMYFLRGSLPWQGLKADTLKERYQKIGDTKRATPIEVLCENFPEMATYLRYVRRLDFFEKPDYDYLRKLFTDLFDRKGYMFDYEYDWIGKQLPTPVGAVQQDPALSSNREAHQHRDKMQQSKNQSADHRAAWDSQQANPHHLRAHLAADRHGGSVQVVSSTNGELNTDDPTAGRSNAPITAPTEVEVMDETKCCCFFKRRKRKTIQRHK
Sequence of NEK6(h) (Q9HC98 whole entry): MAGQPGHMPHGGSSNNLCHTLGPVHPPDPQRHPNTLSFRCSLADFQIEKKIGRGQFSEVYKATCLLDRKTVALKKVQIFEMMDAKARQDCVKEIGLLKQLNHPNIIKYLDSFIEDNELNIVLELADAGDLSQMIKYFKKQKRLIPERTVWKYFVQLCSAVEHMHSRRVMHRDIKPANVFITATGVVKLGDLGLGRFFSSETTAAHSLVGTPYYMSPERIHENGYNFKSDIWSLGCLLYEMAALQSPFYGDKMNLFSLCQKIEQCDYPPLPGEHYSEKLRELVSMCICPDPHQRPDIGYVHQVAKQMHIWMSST
Sequence of Bradykinin B2 (P30411 whole entry): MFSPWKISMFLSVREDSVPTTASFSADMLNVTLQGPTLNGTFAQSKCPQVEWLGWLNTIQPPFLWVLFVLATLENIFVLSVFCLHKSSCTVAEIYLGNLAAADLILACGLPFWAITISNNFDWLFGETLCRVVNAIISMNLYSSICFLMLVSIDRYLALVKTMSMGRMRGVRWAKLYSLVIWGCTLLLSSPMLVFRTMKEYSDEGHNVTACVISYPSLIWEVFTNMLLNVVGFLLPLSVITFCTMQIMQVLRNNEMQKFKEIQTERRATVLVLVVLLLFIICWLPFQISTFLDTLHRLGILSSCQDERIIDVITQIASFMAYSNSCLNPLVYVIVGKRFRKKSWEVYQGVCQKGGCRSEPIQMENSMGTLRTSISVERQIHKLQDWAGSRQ

## COc1ccc(OC)c(NS(=O)(=O)c2ccc(NC(=O)CCSc3ccc(C)cc3)cc2)c1 [Compound A41]
[1]
  size of the spheroids: not affected
[1]; 3D collagen gel
  migration area of spheroids: reduced the migration area
[2]; - S9, 1.3E-04 M
  % Cytotox Cell Numbers: 64.6%
  % Cytotox Index CBPI: 72.8%
  % Micronucleated Cells: 13.39%
[2]; - S9, 1.6E-05 M
  % Cytotox Cell Numbers: 26.4%
  % Cytotox Index CBPI: -23.9%
  % Micronucleated Cells: 2.04%
[2]; - S9, 2.5E-04 M
  % Cytotox Cell Numbers: 73.6%
  % Cytotox Index CBPI: 73.8%
  % Micronucleated Cells: 14.40%
[2]; - S9, 3.1E-05 M
  % Cytotox Cell Numbers: 42.0%
  % Cytotox Index CBPI: 8.1%
  % Micronucleated Cells: 3.12%
[2]; - S9, 6.3E-05 M
  % Cytotox Cell Numbers: 52.5%
  % Cytotox Index CBPI: 65.8%
  % Micronucleated Cells: 6.96%
[2]; - S9, 7.8E-06 M
  % Cytotox Cell Numbers: 14.3%
  % Cytotox Index CBPI: -21.4%
  % Micronucleated Cells: 1.13%
[3]
  % inh.: 16%
[4]
  % inh.: 1%
[5]
  Activity(%): 112%
[6]
  Activity(%): 101%
[7]
  Activity(%): 107%
[8]
  Activity(%): 109%
[9]
  Activity(%): 98%
[10]
  Activity(%): 108%
[11]
  Activity(%): 120%
[12]
  Activity(%): 117%
[13]
  Activity(%): 108%
[14]
  Activity(%): 109%
[15]
  Activity(%): 98%
[16]
  Activity(%): 114%
[17]
  Activity(%): 99%
[18]
  Activity(%): 103%
[19]
  Activity(%): 110%
